Measured values taken from ChEMBL document CHEMBL3132769, “Fragment growing to retain or alter the selectivity of anchored kinase hinge-binding fragments” (Medchemcomm, 2014).

Assays:
[1] = target: Platelet-derived growth factor receptor alpha (Homo sapiens) (UniProt P16234); test: Inhibition of human PDGFR alpha catalytic domain expressed in baculovirus assessed as substrate phosphorylation using fluorescence-labelled peptides as substrate at 9 uM after 90 mins by microfluidic peptide phosphorylation assay
[2] = target: Tyrosine-protein kinase BTK (Homo sapiens) (UniProt Q06187); test: Inhibition of human full length BTK expressed in baculovirus assessed as substrate phosphorylation using fluorescence-labelled peptides as substrate at 95 uM after 90 mins by microfluidic peptide phosphorylation assay
[3] = target: Ribosomal protein S6 kinase alpha-2 (Homo sapiens) (UniProt Q15349); test: Inhibition of human full length RSK3 expressed in baculovirus assessed as substrate phosphorylation using fluorescence-labelled peptides as substrate at 0.06 uM after 90 mins by microfluidic peptide phosphorylation assay
[4] = target: T1, Aurora kinase C (Homo sapiens) (UniProt Q9UQB9); test: Inhibition of human full length AurC expressed in baculovirus assessed as substrate phosphorylation using fluorescence-labelled peptides as substrate at 0.1 uM after 90 mins by microfluidic peptide phosphorylation assay
T1 sequence (whole entry): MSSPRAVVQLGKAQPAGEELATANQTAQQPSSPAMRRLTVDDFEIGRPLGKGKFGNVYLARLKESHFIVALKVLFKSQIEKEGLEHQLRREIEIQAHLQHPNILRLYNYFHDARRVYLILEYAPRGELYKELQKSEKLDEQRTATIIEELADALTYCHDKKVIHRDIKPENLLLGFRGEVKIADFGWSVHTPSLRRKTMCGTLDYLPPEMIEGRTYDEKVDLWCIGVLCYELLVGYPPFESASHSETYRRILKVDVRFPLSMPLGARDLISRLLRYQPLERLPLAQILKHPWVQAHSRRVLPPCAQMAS

[5] = target: T2, Inhibitor of nuclear factor kappa-B kinase subunit beta (Homo sapiens) (UniProt O14920); test: Inhibition of human full length IKK beta expressed in baculovirus assessed as substrate phosphorylation using fluorescence-labelled peptides as substrate at 0.1 uM after 90 mins by microfluidic peptide phosphorylation assay
T2 sequence (whole entry): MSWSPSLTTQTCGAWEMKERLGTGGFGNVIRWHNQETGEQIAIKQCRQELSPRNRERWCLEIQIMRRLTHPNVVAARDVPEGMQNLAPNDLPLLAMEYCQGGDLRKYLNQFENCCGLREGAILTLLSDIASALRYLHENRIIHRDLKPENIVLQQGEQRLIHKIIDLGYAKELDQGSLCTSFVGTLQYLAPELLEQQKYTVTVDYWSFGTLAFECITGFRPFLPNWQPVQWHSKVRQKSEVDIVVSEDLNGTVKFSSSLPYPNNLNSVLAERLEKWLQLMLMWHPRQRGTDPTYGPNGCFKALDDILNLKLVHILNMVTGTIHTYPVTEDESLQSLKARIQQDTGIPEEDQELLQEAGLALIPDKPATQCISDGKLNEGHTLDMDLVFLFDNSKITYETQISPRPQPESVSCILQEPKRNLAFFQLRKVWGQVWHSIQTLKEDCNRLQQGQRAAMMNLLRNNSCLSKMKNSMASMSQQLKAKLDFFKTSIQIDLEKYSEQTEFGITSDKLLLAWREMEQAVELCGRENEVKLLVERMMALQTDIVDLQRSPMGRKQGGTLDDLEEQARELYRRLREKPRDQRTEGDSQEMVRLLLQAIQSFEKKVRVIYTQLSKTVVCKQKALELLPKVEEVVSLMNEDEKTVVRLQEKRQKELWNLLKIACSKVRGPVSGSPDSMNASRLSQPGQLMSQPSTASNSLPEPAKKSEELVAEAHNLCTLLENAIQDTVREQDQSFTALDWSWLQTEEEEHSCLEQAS

[6] = target: Serine/threonine-protein kinase MARK2 (Homo sapiens) (UniProt Q7KZI7); test: Inhibition of human full length MARK2 expressed in baculovirus assessed as substrate phosphorylation using fluorescence-labelled peptides as substrate at 70 uM after 90 mins by microfluidic peptide phosphorylation assay
[7] = target: Proto-oncogene tyrosine-protein kinase Src (Homo sapiens) (UniProt P12931); test: Inhibition of human full length SRC expressed in baculovirus assessed as substrate phosphorylation using fluorescence-labelled peptides as substrate at 70 uM after 90 mins by microfluidic peptide phosphorylation assay
[8] = target: T3, Serine/threonine-protein kinase D3 (Homo sapiens) (UniProt O94806); test: Inhibition of human full length PKD3 expressed in baculovirus assessed as substrate phosphorylation using fluorescence-labelled peptides as substrate at 8 uM after 90 mins by microfluidic peptide phosphorylation assay
T3 sequence (whole entry): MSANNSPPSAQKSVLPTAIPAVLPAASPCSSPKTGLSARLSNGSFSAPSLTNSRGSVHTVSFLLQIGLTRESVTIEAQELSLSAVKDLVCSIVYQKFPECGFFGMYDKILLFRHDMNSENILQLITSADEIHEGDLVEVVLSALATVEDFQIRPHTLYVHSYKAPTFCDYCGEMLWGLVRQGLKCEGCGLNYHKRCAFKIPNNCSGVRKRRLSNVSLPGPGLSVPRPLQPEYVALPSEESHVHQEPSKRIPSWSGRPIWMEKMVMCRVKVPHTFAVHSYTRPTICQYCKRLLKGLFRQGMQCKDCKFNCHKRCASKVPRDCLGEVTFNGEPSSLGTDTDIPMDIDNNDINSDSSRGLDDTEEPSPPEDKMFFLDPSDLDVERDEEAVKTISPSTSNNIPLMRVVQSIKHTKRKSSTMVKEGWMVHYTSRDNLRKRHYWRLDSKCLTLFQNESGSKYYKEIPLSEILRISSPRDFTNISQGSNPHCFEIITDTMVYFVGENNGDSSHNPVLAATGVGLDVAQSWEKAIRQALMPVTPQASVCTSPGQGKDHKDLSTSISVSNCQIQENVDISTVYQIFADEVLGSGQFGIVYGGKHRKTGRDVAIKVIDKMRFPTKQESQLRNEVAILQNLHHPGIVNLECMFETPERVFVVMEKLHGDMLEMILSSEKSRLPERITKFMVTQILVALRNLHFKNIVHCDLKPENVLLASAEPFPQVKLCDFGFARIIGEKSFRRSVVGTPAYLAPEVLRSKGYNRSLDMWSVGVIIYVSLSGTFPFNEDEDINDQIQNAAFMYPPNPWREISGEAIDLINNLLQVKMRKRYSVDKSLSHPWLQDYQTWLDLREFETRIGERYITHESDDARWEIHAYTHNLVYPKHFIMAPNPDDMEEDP

Chain of Serine/threonine-protein kinase MARK2 (Homo sapiens) (Q7KZI7 whole entry): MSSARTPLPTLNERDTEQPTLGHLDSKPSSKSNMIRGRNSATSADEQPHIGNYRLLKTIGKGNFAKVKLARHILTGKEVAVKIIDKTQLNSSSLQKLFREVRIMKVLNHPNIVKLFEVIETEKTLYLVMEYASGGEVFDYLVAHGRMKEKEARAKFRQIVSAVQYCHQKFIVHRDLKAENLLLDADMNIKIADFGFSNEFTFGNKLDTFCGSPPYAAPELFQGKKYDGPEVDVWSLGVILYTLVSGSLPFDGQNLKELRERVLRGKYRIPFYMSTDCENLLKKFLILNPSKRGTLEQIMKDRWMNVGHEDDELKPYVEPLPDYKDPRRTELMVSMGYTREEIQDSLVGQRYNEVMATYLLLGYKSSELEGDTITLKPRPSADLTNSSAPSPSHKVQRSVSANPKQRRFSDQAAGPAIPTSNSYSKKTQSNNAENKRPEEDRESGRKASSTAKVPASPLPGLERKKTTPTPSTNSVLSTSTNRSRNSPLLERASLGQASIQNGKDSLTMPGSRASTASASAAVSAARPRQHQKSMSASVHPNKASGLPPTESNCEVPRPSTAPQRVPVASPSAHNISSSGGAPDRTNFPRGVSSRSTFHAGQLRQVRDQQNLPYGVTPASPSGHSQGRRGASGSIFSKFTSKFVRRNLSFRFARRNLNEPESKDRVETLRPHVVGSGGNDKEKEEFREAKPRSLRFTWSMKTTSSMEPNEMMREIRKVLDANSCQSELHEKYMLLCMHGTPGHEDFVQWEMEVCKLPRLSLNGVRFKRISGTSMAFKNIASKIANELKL
Chain of Ribosomal protein S6 kinase alpha-2 (Homo sapiens) (Q15349 whole entry): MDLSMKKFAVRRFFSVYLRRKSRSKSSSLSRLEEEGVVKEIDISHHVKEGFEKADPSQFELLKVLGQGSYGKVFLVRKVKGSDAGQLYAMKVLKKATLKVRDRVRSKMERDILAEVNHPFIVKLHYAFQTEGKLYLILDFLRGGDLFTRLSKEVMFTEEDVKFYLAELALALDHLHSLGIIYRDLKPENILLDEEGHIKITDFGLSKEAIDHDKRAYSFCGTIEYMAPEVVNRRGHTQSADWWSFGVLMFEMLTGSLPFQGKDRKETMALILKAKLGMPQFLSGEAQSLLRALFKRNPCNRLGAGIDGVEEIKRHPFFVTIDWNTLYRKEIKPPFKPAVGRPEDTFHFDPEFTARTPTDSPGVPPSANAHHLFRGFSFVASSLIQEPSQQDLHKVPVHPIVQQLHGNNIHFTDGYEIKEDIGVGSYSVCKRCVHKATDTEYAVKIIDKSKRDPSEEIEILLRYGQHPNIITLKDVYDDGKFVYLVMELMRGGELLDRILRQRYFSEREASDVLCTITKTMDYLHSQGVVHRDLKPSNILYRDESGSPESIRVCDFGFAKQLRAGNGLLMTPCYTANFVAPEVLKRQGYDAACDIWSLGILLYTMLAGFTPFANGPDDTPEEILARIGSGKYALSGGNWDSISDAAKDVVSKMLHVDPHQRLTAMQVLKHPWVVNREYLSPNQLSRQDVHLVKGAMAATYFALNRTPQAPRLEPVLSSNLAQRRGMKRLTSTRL
Chain of Proto-oncogene tyrosine-protein kinase Src (Homo sapiens) (P12931 2-536 limits assumed): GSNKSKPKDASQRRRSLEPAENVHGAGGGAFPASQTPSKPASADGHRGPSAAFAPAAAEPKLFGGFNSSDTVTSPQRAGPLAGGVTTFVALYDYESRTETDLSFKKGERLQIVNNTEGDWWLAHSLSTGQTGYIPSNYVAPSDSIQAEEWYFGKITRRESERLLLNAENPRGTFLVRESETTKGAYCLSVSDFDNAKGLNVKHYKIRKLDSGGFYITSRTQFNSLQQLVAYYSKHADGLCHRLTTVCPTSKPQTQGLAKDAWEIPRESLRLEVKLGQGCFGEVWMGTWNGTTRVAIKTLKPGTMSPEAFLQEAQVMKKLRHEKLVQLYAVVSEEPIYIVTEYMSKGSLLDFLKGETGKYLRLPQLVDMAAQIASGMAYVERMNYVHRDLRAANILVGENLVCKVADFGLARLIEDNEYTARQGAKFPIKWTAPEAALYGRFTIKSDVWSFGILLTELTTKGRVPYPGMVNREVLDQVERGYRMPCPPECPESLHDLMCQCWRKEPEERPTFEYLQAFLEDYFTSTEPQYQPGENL
Chain of Tyrosine-protein kinase BTK (Homo sapiens) (Q06187 whole entry): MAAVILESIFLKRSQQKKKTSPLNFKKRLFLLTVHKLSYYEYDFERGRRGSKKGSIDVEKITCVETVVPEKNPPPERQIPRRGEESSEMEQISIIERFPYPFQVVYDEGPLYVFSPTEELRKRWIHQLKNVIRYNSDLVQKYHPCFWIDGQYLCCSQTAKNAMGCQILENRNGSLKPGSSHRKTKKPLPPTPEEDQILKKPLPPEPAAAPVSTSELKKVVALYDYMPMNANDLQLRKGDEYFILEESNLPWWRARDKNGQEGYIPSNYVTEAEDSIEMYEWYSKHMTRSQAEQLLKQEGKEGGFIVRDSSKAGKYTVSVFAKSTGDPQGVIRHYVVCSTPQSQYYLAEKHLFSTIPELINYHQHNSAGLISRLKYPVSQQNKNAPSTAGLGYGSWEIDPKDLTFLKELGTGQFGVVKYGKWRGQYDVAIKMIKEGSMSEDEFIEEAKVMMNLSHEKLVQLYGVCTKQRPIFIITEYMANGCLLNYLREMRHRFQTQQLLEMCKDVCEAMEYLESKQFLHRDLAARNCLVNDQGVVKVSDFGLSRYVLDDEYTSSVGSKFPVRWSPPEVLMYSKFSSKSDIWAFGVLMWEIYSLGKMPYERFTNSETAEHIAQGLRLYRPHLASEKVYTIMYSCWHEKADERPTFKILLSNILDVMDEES
Chain of Platelet-derived growth factor receptor alpha (Homo sapiens) (P16234 whole entry, the tested form may be a part): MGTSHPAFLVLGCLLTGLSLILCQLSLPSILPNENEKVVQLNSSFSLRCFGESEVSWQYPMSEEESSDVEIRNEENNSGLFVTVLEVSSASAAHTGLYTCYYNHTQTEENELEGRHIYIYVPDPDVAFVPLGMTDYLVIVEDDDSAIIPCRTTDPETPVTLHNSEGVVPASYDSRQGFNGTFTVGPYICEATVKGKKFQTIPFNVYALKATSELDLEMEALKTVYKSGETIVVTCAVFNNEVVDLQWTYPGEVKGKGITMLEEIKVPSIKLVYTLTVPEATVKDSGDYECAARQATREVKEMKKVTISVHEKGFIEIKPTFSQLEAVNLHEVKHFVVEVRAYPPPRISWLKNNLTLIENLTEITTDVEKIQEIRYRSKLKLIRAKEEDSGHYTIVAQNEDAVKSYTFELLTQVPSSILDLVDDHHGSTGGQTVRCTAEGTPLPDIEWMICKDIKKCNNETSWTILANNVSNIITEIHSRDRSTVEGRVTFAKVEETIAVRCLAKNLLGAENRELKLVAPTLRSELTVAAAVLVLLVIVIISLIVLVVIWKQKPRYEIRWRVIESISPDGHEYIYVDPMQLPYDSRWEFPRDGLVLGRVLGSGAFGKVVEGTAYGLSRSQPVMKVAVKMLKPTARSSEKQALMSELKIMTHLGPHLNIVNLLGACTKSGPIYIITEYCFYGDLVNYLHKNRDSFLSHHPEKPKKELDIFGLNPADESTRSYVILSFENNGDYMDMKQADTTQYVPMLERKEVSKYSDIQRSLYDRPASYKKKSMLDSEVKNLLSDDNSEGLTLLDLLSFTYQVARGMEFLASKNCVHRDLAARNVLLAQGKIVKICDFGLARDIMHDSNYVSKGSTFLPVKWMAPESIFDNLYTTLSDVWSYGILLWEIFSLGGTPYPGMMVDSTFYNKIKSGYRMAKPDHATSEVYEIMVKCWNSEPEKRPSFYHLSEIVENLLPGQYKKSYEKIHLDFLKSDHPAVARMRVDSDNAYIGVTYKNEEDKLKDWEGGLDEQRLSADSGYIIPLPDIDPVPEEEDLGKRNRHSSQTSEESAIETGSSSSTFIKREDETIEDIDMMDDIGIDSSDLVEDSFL

`NCC1CN(c2ncnc3[nH]c4cnccc4c23)CCO1` (stereo not drawn) gave an inhibition [1] of 23%.

In the case of `NCCc1ccc(-c2ncnc3[nH]cnc23)cc1`, the inhibition [2] is reported as 17%.

In the case of `NC1(Cc2ccc(Cl)cc2)CCN(c2ncnc3[nH]ccc23)CC1`, the inhibition [3] is reported as 0%.

Compound `C[C@H](CN(C)C)Oc1nc(Nc2cc3cccc(Cl)c3cn2)cnc1C#N` has an inhibition [4] of 1% and an inhibition [5] of 3.5%.

`CNCc1ccc(-c2ncnc3[nH]cnc23)cc1` showed an inhibition [6] of 61% and an inhibition [7] of 37.5%.

Work on `NCC1CCN(c2ncnc3[nH]ccc23)CC1` yielded an inhibition [8] of 0%.
